Test system: panel of taste experts
Test: taste evaluation of purified compounds in a water base
Assay type: in vivo
Conditions: 500 ppm in a water base
Procedure: A composition comprising the at least one glucosylated terpene glucosides was generated according to the methods described in the preceding examples. The compounds were dissolved in water (alternatively, the compounds could also be combined into a 2% (w/w) or 4% (w/w) sucrose solution or 7% (w/w) inverted sugar plus 0.15% citric acid (w/w) solution), wherein the final concentration of the composition in solution may range from 1 to 1000 ppm. A panel of taste experts evaluated the solutions.

| SMILES | taste perceived | times sweeter than sucrose |
| --- | --- | --- |
| C=C1C[C@@]23CC[C@H]4[C@@](C)(CCC[C@@]4(C)C(=O)O[C@@H]4OC(CO[C@H]5OC(CO)[C@@H](O)C(O)C5O)[C@@H](O)C(O)C4O)[C@@H]2CC[C@]1(O[C@@H]1OC(CO)[C@@H](O)C(O[C@@H]2OC(CO)[C@@H](O)C(O)C2O)C1O[C@@H]1OC(CO)[C@@H](O)C(O)C1O)C3 (stereo partly drawn) [compound of formula III, Mono α-1,6-glucosylated Rebaudioside A] | strong sweet taste | 200-300 times |
| C=C1C[C@@]23CC[C@H]4[C@@](C)(CCC[C@@]4(C)C(=O)O[C@@H]4OC(CO)[C@@H](O)C(O)C4O)[C@@H]2CC[C@]1(O[C@@H]1OC(CO)[C@@H](O)C(O[C@@H]2OC(CO[C@H]4OC(CO)[C@@H](O)C(O)C4O)[C@@H](O)C(O)C2O)C1O[C@@H]1OC(CO)[C@@H](O)C(O)C1O)C3 (stereo partly shown) [compound of formula VIII] | strong sweet taste | 200-300 times |
